These results are taken from PMC6832265 (Molecules, 2019).

The test system of one series is Lewis lung carcinoma. Set-up: method as in PMID 30903487. As to conditions: Lewis lung carcinoma models; cited from earlier work.
The target of series [1] is T1, recombinant Tdp1 (residues 149–608) (Homo sapiens, UniProt Q9NUW8).
T1 construct: recombinant Tdp1 (residues 149–608) was obtained from GenScript; host or cells: E. coli BL21(DE3)
Kind of series: Intrinsic tryptophan fluorescence quenching binding assay. The settings on record: 10 µM Tdp1, 20 mM Tris, 250 mM NaCl, pH 8; triplicate.

Series [2] is described as follows: MTT test, intrinsic cytotoxicity. The series is classed as cell-based. The settings on record: human, HeLa cells (cervical carcinoma), compound alone. The text has this:
First, we studied the intrinsic cytotoxicity of the compounds against HeLa cells (cervical carcinoma). For experiments on cells, we selected compounds which combined high inhibitory activity with good chemical accessibility. The MTT test data are shown in Figure 4 for compounds from both the heteroarylidene-hydrazinotiazole and arylidene-hydrazinotiazole subclasses. […] Heteroarylidene-hydrazinothiazole derivatives (+)- and (−)-16f, containing a bromothiophene residue, also have low toxicity (CC50 about 80 µM), while the 16d pair, containing a nitro group that is a known toxicophore, suppressed cell growth at a concentration of 20 µM.
Analysis of the intrinsic toxicity of the compounds was examined against human cell line HeLa (cervical cancer) using a standard MTT test by colorimetric measurement of the amount of formazan converted from 3-(4,5-dimethylthiazol-2-yl)-2,5-diphenyl-2H-tetrazolium bromide in cells exposed to the compounds. […] After formation of a 30–50% monolayer, tested compounds were added to the medium (the volume of added reagents was 1/100 of the total volume of the culture medium, the amount of DMSO was 1% of the final volume), and the cell culture was monitored for three days. […]

In series [3] the target is T2, Tdp1 (Homo sapiens, UniProt Q9NUW8).
T2 construct: made in house; host or cells: Escherichia coli
T2 sequence (Q9NUW8 whole entry): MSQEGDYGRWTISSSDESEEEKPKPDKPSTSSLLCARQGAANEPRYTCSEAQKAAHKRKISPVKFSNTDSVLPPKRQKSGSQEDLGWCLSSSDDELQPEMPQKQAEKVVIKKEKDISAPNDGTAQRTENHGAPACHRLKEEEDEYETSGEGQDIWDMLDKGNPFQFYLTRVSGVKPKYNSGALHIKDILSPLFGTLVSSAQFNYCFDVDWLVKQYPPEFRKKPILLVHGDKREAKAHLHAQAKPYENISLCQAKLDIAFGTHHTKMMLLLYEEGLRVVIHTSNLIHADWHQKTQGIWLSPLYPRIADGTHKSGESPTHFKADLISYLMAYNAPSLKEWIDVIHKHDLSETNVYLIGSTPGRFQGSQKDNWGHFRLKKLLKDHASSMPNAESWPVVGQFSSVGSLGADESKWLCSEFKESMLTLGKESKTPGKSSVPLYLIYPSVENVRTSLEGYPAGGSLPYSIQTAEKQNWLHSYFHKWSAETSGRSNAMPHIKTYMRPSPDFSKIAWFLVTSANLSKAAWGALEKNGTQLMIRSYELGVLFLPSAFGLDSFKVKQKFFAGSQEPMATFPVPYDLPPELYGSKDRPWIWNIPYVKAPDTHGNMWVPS
Kind of series: Real-time detection of Tdp1 activity (5'-FAM/3'-BHQ1 oligonucleotide biosensor). The series is classed as biochemical. The settings on record: 1.5 nM Tdp1, 50 nM oligonucleotide substrate, 26 °C. Summed up:
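Recombinant human Tdp1 (E. coli-expressed, 1.5 nM) with 50 nM 16-mer ssDNA 5'-FAM/3'-BHQ1 biosensor in 50 mM Tris-HCl, 50 mM NaCl, 7 mM β-mercaptoethanol, 26 °C; fluorescence (Ex485/Em520) read each minute. Inhibition from linear-phase slope (0–7 min) vs 1.5% DMSO control; IC50 from six-point curves, ≥2 independent experiments.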

For a further series, the system named is Top1. Set-up: method as in PMID 28418653. The settings on record: cited from earlier work.
Series [4] concerns the target T2, Tdp1. The settings on record: read-out: IC50 (Tdp1); cited from earlier work.
A further series deals with Tdp2. Set-up: method as in PMID 28418653. The settings on record: cited from earlier work.
Another series deals with HeLa cells. Kind of series: MTT test, combination of Tdp1 inhibitors with topotecan. The series is classed as cell-based, human. For orientation: Formazan colour is commonly taken as a measure of viable cells.
A further series relates to mice. The settings on record: ref Registry of Toxic Effects of Chemical Substances, cited from earlier work.

“Also recorded” adds a separate entry of the source. Read-outs that look alike come from different tables or passages of the source.

T1 sequence (Q9NUW8 149-608): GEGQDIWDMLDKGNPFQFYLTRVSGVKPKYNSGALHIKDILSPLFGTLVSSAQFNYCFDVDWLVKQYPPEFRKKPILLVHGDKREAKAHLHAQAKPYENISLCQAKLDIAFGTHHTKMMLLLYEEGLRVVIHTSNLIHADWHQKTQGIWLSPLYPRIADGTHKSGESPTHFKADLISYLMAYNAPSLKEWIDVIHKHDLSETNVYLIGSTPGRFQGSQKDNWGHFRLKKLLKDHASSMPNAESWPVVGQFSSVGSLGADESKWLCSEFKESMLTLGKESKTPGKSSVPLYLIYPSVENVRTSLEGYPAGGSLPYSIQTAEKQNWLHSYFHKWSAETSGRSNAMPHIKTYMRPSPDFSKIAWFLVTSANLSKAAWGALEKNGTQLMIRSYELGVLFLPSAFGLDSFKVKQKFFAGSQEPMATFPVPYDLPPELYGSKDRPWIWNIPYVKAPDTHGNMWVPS
Protocol for HeLa cells: In order to derive the optimal concentration for the inhibitors to provide the maximum sensitizing effect, but remaining non-toxic, the concentrations with topotecan at 2 µM, were varied.
Since there is no information on the rate and efficiency of the penetration of compounds into the cells, we studied the effect of the order of administration of (+)-17b and topotecan on their synergistic effect.
Analysis of the intrinsic toxicity of the compounds was examined against human cell line HeLa (cervical cancer) using a standard MTT test [51] by colorimetric measurement of the amount of formazan converted from 3-(4,5-dimethylthiazol-2-yl)-2,5-diphenyl-2H-tetrazolium bromide in cells exposed to the compounds. The cells were grown in Iscove’s Modified Dulbecco’s Medium (IMDM), with 40 μg/mL gentamicin, 50 IU/mL penicillin, 50 μg/mL streptomycin (MP Biomedicals), and in the presence of 10% fetal bovine serum (Biolot) in a 5% CO2 atmosphere. After formation of a 30–50% monolayer, tested compounds were added to the medium (the volume of added reagents was 1/100 of the total volume of the culture medium, the amount of DMSO was 1% of the final volume), and the cell culture was monitored for three days. Control cells were grown in the presence of 1% DMSO. The measurements were carried out in three parallel experiments.

As for `CC(=O)c1c(O)c(C)c(O)c2c1OC1=CC(=O)/C(=C(/C)NCCCc3cc(C(C)(C)C)c(O)c(C(C)(C)C)c3)C(=O)[C@@]12C` [9b], the metastasis growth result in the series with Lewis lung carcinoma is listed as “reduces metastasis growth”.
As usually defined, the Kd is the constant that tells how readily two partners part at equilibrium. For orientation: CC50 means the concentration giving 50% cytotoxicity. The IC50 is the point on the concentration scale where inhibition reaches its midpoint. As to `CC(=O)C1=C(O)C=C2Oc3c(-c4csc(N/N=C/c5ccc(Br)s5)n4)c(O)c(C)c(O)c3[C@]2(C)C1=O` [(−)-16f, (2S)-4-Acetyl-5,11,13-trihydroxy-2,12-dimethyl-10-{2-[(E)-2-[(5-bromothiophen-2-yl)methylidene]hydrazin-1-yl]-1,3-thiazol-4-yl}-8-oxatricyclo[7.4.0.0^2,7]trideca-1(9),4,6,10,12-pentaen-3-one], the Kd in series [1] came out at 148 ± 9 µM. Also, the CC50 at 3 days in series [2] was ~80 µM. The compound further showed an IC50 at Tdp1 [3] of 0.043 ± 0.001 µM.
For the compound `CC(=O)C1=C(O)C=C2Oc3c(-c4csc(N/N=C/c5ccc(Br)s5)n4)c(O)c(C)c(O)c3[C@@]2(C)C1=O` [(+)-16f, (2R)-4-Acetyl-5,11,13-trihydroxy-2,12-dimethyl-10-{2-[(E)-2-[(5-bromothiophen-2-yl)methylidene]hydrazin-1-yl]-1,3-thiazol-4-yl}-8-oxatricyclo[7.4.0.0^2,7]trideca-1(9),4,6,10,12-pentaen-3-one], the Kd in series [1] was found to be 95 ± 11 µM. Besides, the CC50 at 3 days in [2] was ~80 µM. In addition, inhibition against Tdp1 [3] was half-maximal at 0.088 ± 0.003 µM (IC50).
In the case of `COc1cnc2c(c1)C(=O)c1c-2n(CCCNC2=NCCS2)c(=O)c2cc([N+](=O)[O-])ccc12` [compound 4], the half-maximal inhibitory concentration (IC50) with Top1 was < 1 µM; on Tdp1 [4], 1 to 12 µM; in the series with Tdp2, 12 to 37 µM.
Take `COc1ccc(/C=N/Nc2nc(-c3c(O)c(C)c(O)c4c3OC3=CC(O)=C(C(C)=O)C(=O)[C@@]34C)cs2)cc1COc1cccc(F)c1` [(+)-17b, (2R)-4-Acetyl-10-{2-[(E)-2-({3-[(3-fluorophenoxy)methyl]-4-methoxyphenyl}methylidene)hydrazin-1-yl]-1,3-thiazol-4-yl}-5,11,13-trihydroxy-2,12-dimethyl-8-oxatricyclo[7.4.0.0^2,7]trideca-1(9),4,6,10,12-pentaen-3-one]: in the series on HeLa cells (30 minutes between additions), the “effect of the order of administration on the synergistic effect with topotecan” value was “the simultaneous administration of drugs reduced the synergistic effect; also recorded: led to worse results when compared with simultaneous administration”. Further, the Kd in series [1] turned out to be 131 ± 15 µM. This compound also displayed a half-inhibitory concentration (IC50) against Tdp1 [3] of 0.026 ± 0.004 µM.
In general, LD50 refers to the dose at which mortality reaches 50%. With “2,6-diacetyl-7,9-dihydroxy-8,9b-dimethyl-1,3(2H,9bH)-dibenzo-furandione [Usnic acid]”, in the series with mice (mice), the median lethal dose (LD50) is on record as 838 mg/kg. In addition, the toxicity class result in the series on mice is “class III toxicity (moderately toxic)”.
On to `CC[C@@]1(O)C(=O)OCc2c1cc1n(c2=O)Cc2cc3c(CN(C)C)c(O)ccc3nc2-1` [topotecan, reference compound], for which the CC50 in the series with HeLa cells (Homo sapiens, read-out: CC50 of topotecan alone) stood at 6 µM.
